The values that follow come from patent US11384379B2, “Method for producing a protein and disaccharide using a Talaromyces cellulolyticus” (AJINOMOTO CO., INC., priority 2017, dated 2022).

The test system of assay [1] is T. cellulolyticus strains F09pyr+ and F09Δgh1-2. The experiment in a line: Halo assay for secretory cellulase by various beta-linked glucose oligosaccharides (CMC minimal medium, Congo Red). In kind it is cell-based, Talaromyces cellulolyticus. The note with it: 30° C. for 36 hours. As for the experimental part: The strains F09pyr+ and F09Δgh1-2 were each grown on the minimal medium containing glucose as the carbon source for 3 days. […] After the culture, a Congo Red solution obtained by mixing 50 mM sodium phosphate buffer (pH 7.0) and 2 mg/ml Congo Red (Nacalai Tesque) in a volume ratio of 10:1 was added to the plate so that the Congo Red solution covered the entire plate, and the plate was left to stand for 30 minutes at a room temperature. Then, the Congo Red solution on the plate was removed, and sodium phosphate buffer (50 mM, pH 7.0) was added to the plate so that the sodium phosphate buffer covered the entire plate. The plate was again left to stand for 30 minutes at a room temperature. Then, the sodium phosphate buffer on the plate was removed, the surface of the plate was dried lightly, and observation of halo was carried out.

Assay [2] relates to T. cellulolyticus strain F09ΔcreA. The experiment in a line: Cellulase production fed-batch culture using gentiobiose, filter paper degradation activity. In kind it is cell-based, Talaromyces cellulolyticus. The note with it: carbon source other than glucose in the feed solution, compared with cellobiose; 72 hours.
Experimental: The T. cellulolyticus strains F09ΔcreA and F09Δgh1-2ΔcreA were each inoculated into PD medium, and cultured at 30° C. One agar disk excised from around the edge of a formed colony was inoculated into 20 mL of a liquid culture medium containing 20 g/L glucose, 24 g/L KH2PO4, 5 g/L (NH4)2SO4, 2 g/L Urea, 1.2 g/L MgSO4-7H2O, 0.01 g/L ZnSO4-7H2O, 0.01 g/L MnSO4-5H2O, 0.01 g/L CuSO4-5H2O, 1 g/L Corn steep liquor (C4648, SIGMA), and 1 g/L Tween 80, and gyratory culture (220 rpm) was carried out at 30° C. for 5 days as a pre-culture. […]
The filter paper degradation activity (FPU/ml) of the obtained enzyme solutions was measured according to the following procedure, and the yield of the activity per carbon source was calculated on the basis of the consumption amount of sugar during the cultures by which the respective enzyme solutions were obtained.
To a 100-μl aliquot of a citrate buffer (50 mM, pH 5.0) containing a filter paper (Whatman No. 1, GE Healthcare) cut to 6 mm×10 mm, 50 μl of an appropriately diluted sample were added, and a reaction was carried out at 50° C. for 1 hour. […] Then, the absorbance at 540 nm of the supernatant was measured, and the value of the blank was subtracted therefrom, to calculate an increase in absorbance. […]
Assay [3] has as its system T. cellulolyticus strains Y-94, W363Frep, W449Frep, and C267Prep. The experiment in a line: Halo assay of strains Y-94, W363Frep, W449Frep, C267Prep with or without gentiobiose. In kind it is cell-based, Talaromyces cellulolyticus. The note with it: 1 mM gentiobiose in combination with W363F, W449F or C267P mutation in the gh1-2 gene; 5 days. As for the experimental part: (§1) The strains Y-94, W363Frep, W449Frep, and C267Prep were each grown on the minimal medium containing CMC as the carbon source and on the minimal medium containing CMC as the carbon source and 1 mM gentiobiosefor 5 days according to the procedure described in Example (1-4). After the culture, a Congo Red solution obtained by mixing 50 mM sodium phosphate buffer (pH 7.0) and 2 mg/ml Congo Red (Nacalai Tesque) in a volume ratio of 10:1 was added to the plate so that the Congo Red solution covered the whole of the plate, and the plate was left to stand for 30 minutes at a room temperature. Then, the Congo Red solution on the plate was removed, and sodium phosphate buffer (50 mM, pH 7.0) was added to the plate so that the sodium phosphate buffer covered the whole of the plate. The plate was again left to stand for 30 minutes at a room temperature. Then, the sodium phosphate buffer on the plate was removed, the surface of the plate was dried lightly, and the diameter and width of the visualized halo were measured.

Assay [4] relates to T. cellulolyticus strains F09pyrF+, F09Δgh1-2, F09Δbgl3A, and F09Δgh1-2Δbgl3A. The experiment in a line: Plate halo assay of double deficient strain of GH1-2 and BGL3A with or without gentiobiose. In kind it is cell-based, Talaromyces cellulolyticus. The note with it: 1 mM gentiobiose in combination with double disruption of the gh1-2 gene and the bgl3A gene; 5 days. As for the experimental part:
as §1, with “F09pyrF+” for “Y-94, W363Frep, W449Frep,”, “F09Δgh1-2 constructed in Example (1-1), the strain F09Δbgl3A constructed in Example (5-1), and the strain F09Δgh1-2Δbgl3A constructed in Example (7-1)” for “C267Prep”

Assay [5] relates to HSA expressing strain derived from the T. cellulolyticus strain F09ΔyscB. The note with it: feeding solution Gentiobiose 80 g/L vs Cellobiose 80 g/L; 45 hours.
Experimental: The HSA expressing strain derived from the T. cellulolyticus strain F09ΔyscB was inoculated into PD medium, and cultured at 30° C. One agar disk excised from around the edge of a formed colony was inoculated into 20 mL of a liquid culture medium containing 20 g/L glucose, 24 g/L KH2PO4, 5 g/L (NH4)2SO4, 2 g/L Urea, 1.2 g/L MgSO4-7H2O, 0.01 g/L ZnSO4-7H2O, 0.01 g/L MnSO4-5H2O, 0.01 g/L CuSO4-5H2O, 1 g/L Corn steep liquor (C4648, SIGMA), and 1 g/L Tween 80, and gyratory culture (220 rpm) was carried out at 30° C. for 5 days as a pre-culture. Then, 15 mL of the pre-culture broth was inoculated into 300 mL of a liquid culture medium containing 15 g/L glucose, 12 g/L KH2PO4, 10 g/L (NH4)2SO4, 1.2 g/L MgSO4-7H2O, 0.01 g/L ZnSO4-7H2O, 0.01 g/L MnSO4-5H2O, 0.01 g/L CuSO4-5H2O, 5 g/L Corn steep liquor, 1 g/L Tween 80, and 0.5 mL/L DISFOAM GD (NOF CORPORATION) in a jar fermenter, and fed-batch culture was carried out for 45 hours at a culture temperature of 30° C. and an aeration volume of 1/2 vvm, while controlling the dissolved oxygen concentration to be 5% or higher of the saturated oxygen concentration by stirring and controlling the pH to be 5 with using ammonia gas. […]
HSA was quantified by ELISA using Albumin ELISA Quantitation Kit, Human (Bethyl Laboratories, inc.).

With gentiobiose, the “complementation of the decrease in the ability for secretory production of cellulase due to deletion of the gh1-2 gene (halo)” value in assay [1] (0.01 mM in CMC minimal medium) was “complemented the decrease in the ability for secretory production of cellulase more strongly than other beta-linked glucose oligosaccharides”; in assay [1] (1 mM in CMC minimal medium), “strongly complements the decrease in the ability for secretory production of cellulase”. Besides, the “efficiency of cellulase production (filter paper degradation activity, yield per carbon source)” value in assay [2] is given as “cellulase production with higher efficiency”. The “secretory production of cellulase (diameter and width of degradation halo)” value in assay [3] is “secretory production of cellulase is synergistically improved”. Moreover, the “secretory production of cellulase (width of degradation halo)” value in assay [4] was “secretory production of cellulase is synergistically improved”. Besides, in assay [5], the “secretory production amount of HSA” value is on record as “greater in the case of feeding gentiobiose than in the case of feeding cellobiose”.
